Measured values published in patent US10168342B2, “Lipid probes and uses thereof” (THE SCRIPPS RESEARCH INSTITUTE, priority 2015, dated 2019).
Like-named read-outs stand apart in the source and are kept apart here.

Assays:
[1] = target: T1, AEA-DA lipid probe targets in Neuro2a cells (Mus musculus, UniProt P81117)
T1 sequence (P81117 25-420): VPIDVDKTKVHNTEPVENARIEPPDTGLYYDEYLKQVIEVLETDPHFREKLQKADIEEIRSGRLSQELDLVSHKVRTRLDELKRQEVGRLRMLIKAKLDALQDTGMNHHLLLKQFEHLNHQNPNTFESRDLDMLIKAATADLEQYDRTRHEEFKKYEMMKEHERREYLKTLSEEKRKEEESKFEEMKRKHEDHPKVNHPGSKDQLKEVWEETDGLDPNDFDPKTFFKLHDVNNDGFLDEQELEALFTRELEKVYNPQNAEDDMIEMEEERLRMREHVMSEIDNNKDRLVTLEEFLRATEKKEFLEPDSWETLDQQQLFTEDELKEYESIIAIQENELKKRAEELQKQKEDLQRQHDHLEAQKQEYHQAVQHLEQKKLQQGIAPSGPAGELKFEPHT

[2] = target: T2, AEA-DA lipid probe targets in Neuro2a cells (Mus musculus, UniProt Q80W54)
T2 sequence (Q80W54 1-475): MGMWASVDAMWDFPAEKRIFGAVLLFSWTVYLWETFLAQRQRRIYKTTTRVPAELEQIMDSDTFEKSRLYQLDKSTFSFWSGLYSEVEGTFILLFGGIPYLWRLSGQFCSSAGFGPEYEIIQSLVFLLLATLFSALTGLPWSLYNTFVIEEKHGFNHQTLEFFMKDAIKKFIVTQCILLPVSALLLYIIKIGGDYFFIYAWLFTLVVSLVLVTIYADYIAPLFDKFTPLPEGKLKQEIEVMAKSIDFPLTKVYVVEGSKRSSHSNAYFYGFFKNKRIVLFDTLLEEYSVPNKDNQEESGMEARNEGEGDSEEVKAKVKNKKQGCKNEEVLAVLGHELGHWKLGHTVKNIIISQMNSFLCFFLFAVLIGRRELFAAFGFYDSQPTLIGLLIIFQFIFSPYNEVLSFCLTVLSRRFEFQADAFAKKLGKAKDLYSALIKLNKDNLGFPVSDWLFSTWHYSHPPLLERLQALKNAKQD

[3] = target: T3, AEA-DA lipid probe targets in Neuro2a cells (Mus musculus, UniProt Q924D0); conditions: protein Rtn4ip1, Neuro2a cells
T3 sequence (Q924D0 41-396): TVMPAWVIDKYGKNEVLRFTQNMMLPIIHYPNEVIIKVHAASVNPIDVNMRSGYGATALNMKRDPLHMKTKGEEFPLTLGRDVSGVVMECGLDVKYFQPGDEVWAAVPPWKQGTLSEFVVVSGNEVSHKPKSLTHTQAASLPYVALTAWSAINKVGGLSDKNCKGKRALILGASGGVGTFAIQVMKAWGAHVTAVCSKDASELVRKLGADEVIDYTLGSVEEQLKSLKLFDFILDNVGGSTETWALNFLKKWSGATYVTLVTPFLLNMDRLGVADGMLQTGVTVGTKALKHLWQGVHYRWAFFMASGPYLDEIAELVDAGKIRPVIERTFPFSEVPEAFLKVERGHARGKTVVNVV

[4] = target: AEA-DA lipid probe targets in Neuro2a cells (Mus musculus, UniProt Q8C0L6)
[5] = target: AEA-DA lipid probe targets in Neuro2a cells (Mus musculus, UniProt Q9R1P3)
[6] = target: AEA-DA lipid probe targets in Neuro2a cells (Mus musculus, UniProt Q91XC9)
[7] = target: T4, AEA-DA lipid probe targets in Neuro2a cells (Mus musculus, UniProt Q91ZN5)
T4 sequence (Q91ZN5 1-431): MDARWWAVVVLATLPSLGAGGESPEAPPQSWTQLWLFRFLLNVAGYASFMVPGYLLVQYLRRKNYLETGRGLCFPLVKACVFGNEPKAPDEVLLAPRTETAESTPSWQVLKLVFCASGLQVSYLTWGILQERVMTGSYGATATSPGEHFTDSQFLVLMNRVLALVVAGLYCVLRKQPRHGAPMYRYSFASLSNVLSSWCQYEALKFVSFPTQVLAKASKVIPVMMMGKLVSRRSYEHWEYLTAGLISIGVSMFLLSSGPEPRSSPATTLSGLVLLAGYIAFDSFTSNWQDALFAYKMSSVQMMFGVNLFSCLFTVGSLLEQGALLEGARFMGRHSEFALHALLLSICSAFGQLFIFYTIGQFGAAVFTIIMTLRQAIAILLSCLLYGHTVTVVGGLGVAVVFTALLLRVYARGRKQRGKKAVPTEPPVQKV

[8] = target: T5, AEA-DA lipid probe targets in Neuro2a cells (Mus musculus, UniProt Q60930); conditions: Neuro2a cells, AEA-DA probe
T5 sequence (Q60930 1-295): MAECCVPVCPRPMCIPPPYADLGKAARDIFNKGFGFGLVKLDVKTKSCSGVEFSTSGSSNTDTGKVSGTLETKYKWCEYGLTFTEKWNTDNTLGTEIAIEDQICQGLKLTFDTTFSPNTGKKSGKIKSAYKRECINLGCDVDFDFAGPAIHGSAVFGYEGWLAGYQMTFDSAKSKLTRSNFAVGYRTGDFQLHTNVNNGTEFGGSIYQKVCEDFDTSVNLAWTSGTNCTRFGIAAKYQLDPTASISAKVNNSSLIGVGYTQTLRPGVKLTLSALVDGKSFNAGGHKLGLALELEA

[9] = target: AEA-DA lipid probe targets in Neuro2a cells (Mus musculus, UniProt Q60715)
Sequence of AEA-DA lipid probe targets in Neuro2a cells (Mus musculus, UniProt Q60715) (Q60715 18-534): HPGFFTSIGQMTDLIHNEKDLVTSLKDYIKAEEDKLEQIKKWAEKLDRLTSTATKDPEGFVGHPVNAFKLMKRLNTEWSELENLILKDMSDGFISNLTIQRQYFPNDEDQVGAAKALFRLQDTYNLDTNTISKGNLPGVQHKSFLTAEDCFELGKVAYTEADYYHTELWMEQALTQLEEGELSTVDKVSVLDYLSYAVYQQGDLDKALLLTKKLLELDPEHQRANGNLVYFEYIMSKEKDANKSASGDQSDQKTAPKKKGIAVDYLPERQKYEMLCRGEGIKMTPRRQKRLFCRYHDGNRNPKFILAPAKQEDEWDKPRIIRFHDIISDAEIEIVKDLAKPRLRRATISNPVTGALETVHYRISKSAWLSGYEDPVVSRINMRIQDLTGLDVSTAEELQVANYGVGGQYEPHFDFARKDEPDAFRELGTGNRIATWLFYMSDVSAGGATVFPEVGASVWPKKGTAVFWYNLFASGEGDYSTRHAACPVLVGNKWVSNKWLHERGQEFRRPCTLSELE

Sequence of AEA-DA lipid probe targets in Neuro2a cells (Mus musculus, UniProt Q8C0L6) (Q8C0L6 whole entry): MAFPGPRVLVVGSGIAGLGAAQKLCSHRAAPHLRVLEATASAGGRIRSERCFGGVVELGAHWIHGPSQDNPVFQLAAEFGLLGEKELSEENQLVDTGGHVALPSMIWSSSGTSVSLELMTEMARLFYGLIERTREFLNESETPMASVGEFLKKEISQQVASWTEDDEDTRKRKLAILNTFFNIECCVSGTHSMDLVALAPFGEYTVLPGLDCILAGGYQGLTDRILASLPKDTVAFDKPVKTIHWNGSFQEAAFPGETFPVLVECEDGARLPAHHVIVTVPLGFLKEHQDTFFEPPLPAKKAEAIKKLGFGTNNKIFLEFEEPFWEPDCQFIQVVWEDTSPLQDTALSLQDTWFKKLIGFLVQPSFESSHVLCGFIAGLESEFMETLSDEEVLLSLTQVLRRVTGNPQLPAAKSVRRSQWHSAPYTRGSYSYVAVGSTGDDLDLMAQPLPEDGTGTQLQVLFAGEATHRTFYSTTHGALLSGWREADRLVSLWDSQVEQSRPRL
Sequence of AEA-DA lipid probe targets in Neuro2a cells (Mus musculus, UniProt Q91XC9) (Q91XC9 whole entry): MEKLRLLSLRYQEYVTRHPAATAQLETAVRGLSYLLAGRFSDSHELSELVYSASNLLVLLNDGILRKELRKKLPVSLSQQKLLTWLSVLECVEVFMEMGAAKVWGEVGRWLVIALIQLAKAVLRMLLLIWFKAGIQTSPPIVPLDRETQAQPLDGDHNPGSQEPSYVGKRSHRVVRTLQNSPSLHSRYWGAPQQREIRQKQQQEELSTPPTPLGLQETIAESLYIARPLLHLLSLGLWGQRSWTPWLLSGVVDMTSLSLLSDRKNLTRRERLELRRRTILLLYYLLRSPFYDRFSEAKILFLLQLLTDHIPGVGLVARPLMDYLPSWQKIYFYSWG
Sequence of AEA-DA lipid probe targets in Neuro2a cells (Mus musculus, UniProt Q9R1P3) (Q9R1P3 whole entry): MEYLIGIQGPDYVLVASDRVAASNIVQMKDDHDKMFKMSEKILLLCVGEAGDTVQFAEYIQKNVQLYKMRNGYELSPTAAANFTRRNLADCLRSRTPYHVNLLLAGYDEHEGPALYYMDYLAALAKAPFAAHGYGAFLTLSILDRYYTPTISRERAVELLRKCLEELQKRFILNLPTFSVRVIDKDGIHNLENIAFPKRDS

CCCCC/C=C\C/C=C\C/C=C\C/C=C\CCCC(=O)NCCO [AEA, anandamide, reference compound]
SILAC ratio, Nucb2 ([1]; competitor 200 μM): 1.5
SILAC ratio Zmpste24 ([2]; competitor 200 μM): 1.7
SILAC ratio (AEA-DA competition) ([3]; competitor 200 μM): 1.0
SILAC ratio, Paox ([4]; competitor 200 μM): 7.5
SILAC ratio Psmb2 ([5]; competitor 200 μM): 1.3
SILAC ratio, Pex16 ([6]; competitor 200 μM): 1.7
SILAC ratio, Slc35b2 ([7]; competitor 200 μM): 1.9
SILAC ratio, VDAC2 (P45880) ([8]; competitor 200 μM): 1.2
SILAC ratio P4ha1 ([9]; competitor 200 μM): 1.0

C=CCN(C)CCCCCCOc1ccc(C(=O)c2ccc(Br)cc2)c(F)c1 [Ro 48-8071, reference compound]
SILAC ratio, Nucb2 ([1]; competitor 25 μM): 0.8
SILAC ratio Zmpste24 ([2]; competitor 25 μM): 1.0
SILAC ratio (AEA-DA competition) ([3]; competitor 25 μM): 0.7
SILAC ratio, Paox ([4]; competitor 25 μM): 2.4
SILAC ratio Psmb2 ([5]; competitor 25 μM): 1.0
SILAC ratio, Pex16 ([6]; competitor 25 μM): 1.3
SILAC ratio, Slc35b2 ([7]; competitor 25 μM): 0.9
SILAC ratio, VDAC2 (P45880) ([8]; competitor 25 μM): 1.0
SILAC ratio P4ha1 ([9]; competitor 25 μM): 1.1

CN1CCN(C(=O)c2c(-c3ccccc3)c3cc([N+](=O)[O-])ccc3n2C)CC1 [KML110, (1-Methyl-5-nitro-3-phenyl-1H-indol-2-yl)(4-methylpiperazin-1-yl)methanone]
SILAC ratio, Nucb2 ([1]; competitor 25 μM): 2.0
SILAC ratio Zmpste24 ([2]; competitor 25 μM): 1.4
SILAC ratio, Paox ([4]; competitor 25 μM): 2.9
SILAC ratio Psmb2 ([5]; competitor 25 μM): 1.7
SILAC ratio, Pex16 ([6]; competitor 25 μM): 1.4
SILAC ratio, Slc35b2 ([7]; competitor 25 μM): 1.3

O=C(/C=C/c1cccnc1)NCCCCC1CCN(C(=O)c2ccccc2)CC1 [FK-866, reference compound]
SILAC ratio, Nucb2 ([1]; competitor 25 μM): 1.1
SILAC ratio Zmpste24 ([2]; competitor 25 μM): 1.1
SILAC ratio, Paox ([4]; competitor 25 μM): 3.2
SILAC ratio Psmb2 ([5]; competitor 25 μM): 1.7
SILAC ratio, Pex16 ([6]; competitor 25 μM): 1.1
SILAC ratio, Slc35b2 ([7]; competitor 25 μM): 1.0
SILAC ratio, VDAC2 (P45880) ([8]; competitor 25 μM): 1.0
SILAC ratio P4ha1 ([9]; competitor 25 μM): 1.1

CN1CCN(C(=O)c2[nH]c3ccc([N+](=O)[O-])cc3c2-c2ccccc2)CC1 [MJN228, (4-Methylpiperazin-1-yl)(5-nitro-3-phenyl-1H-indol-2-yl)methanone]
SILAC ratio, Nucb2 ([1]; competitor 10 μM): 1.4
SILAC ratio, Nucb2 ([1]; competitor 25 μM): 1.6
SILAC ratio, Nucb2 ([1]; competitor 50 μM): 2.1
SILAC ratio, Nucb2 ([1]; competitor 100 μM): 2.9
SILAC ratio Zmpste24 ([2]; competitor 10 μM): 1.1
SILAC ratio Zmpste24 ([2]; competitor 25 μM): 1.2
SILAC ratio Zmpste24 ([2]; competitor 50 μM): 1.3
SILAC ratio Zmpste24 ([2]; competitor 100 μM): 1.9
SILAC ratio (AEA-DA competition) ([3]; competitor 10 μM): 1.0
SILAC ratio (AEA-DA competition) ([3]; competitor 25 μM): 1.4
SILAC ratio, Paox ([4]; competitor 10 μM): 2.1
SILAC ratio, Paox ([4]; competitor 25 μM): 3.2
SILAC ratio, Paox ([4]; competitor 50 μM): 4.5
SILAC ratio, Paox ([4]; competitor 100 μM): 13.5
SILAC ratio Psmb2 ([5]; competitor 10 μM): 1.3
SILAC ratio Psmb2 ([5]; competitor 25 μM): 1.4
SILAC ratio Psmb2 ([5]; competitor 50 μM): 1.2
SILAC ratio Psmb2 ([5]; competitor 100 μM): 2.2
SILAC ratio, Pex16 ([6]; competitor 10 μM): 0.9
SILAC ratio, Pex16 ([6]; competitor 25 μM): 1.5
SILAC ratio, Pex16 ([6]; competitor 50 μM): 2.3
SILAC ratio, Pex16 ([6]; competitor 100 μM): 2.2
SILAC ratio, Slc35b2 ([7]; competitor 10 μM): 1.0
SILAC ratio, Slc35b2 ([7]; competitor 25 μM): 1.1
SILAC ratio, Slc35b2 ([7]; competitor 50 μM): 1.6
SILAC ratio, Slc35b2 ([7]; competitor 100 μM): 1.2
SILAC ratio, VDAC2 (P45880) ([8]; competitor 25 μM): 1.0
SILAC ratio P4ha1 ([9]; competitor 10 μM): 1.3
